Test system: amylase
Assay: Amylase activity retention in detergent use solution (4000 ppm, 5 GPG water; ethylidene substrate EPS, HEPES buffer pH 8.0)
Type: biochemical
Description: The enzyme activities in the detergents with different phosphonate levels were tested at 4000 ppm in 5 grains per gallon (GPG) water at 120° F. with various time points collected up to 4 hours, after a use solution was generated from the detergent composition. During the tests, the samples at different time points were collected and immediately frozen in an acetone/dry ice bath and stored in −80° C. before the activity of the enzyme was evaluated. For the use of such an assay, t=0 min was the reference point for 100% enzyme activity.
Assays of enzyme activity in formulations (% retention) were conducted to simulate a presoak condition in a beaker using the chemistry, temperature, and pH conditions relevant to manual warewash or presoak applications. Enzyme activity is an indicator of the stability of the enzyme in the detergent, specifically in an aqueous use solution within a sump (which is under conditions of high pH, temperature and dilution).
Enzyme activity under presoak or manual warewash conditions was traced quantitatively using a standard protease assay. Samples were prepared under bench top conditions, whereby the use solution from a detergent composition or detergent was obtained and maintained at a presoak or manual warewash temperature in a stirring water bath. After the time course for assessing enzyme stability is initiated, aliquots were taken at various time points and flash-frozen. A time=0 sample was prepared for each series by dissolving the detergent formulation at room temperature, mixing thoroughly, and flash freezing. Samples were thawed and diluted as necessary in an assay buffer usually for use in the protease assay. A glycine buffer at pH 9.0 is used here. The assay monitored the direct reaction of the protease on a small, commercially available peptidyl substrate, with liberation of the product providing correlation to the active enzyme content. The product was detected using a plate reader with an appreciable dynamic range (upper absorbance limit of the instrument >3.5). Enzyme activity levels were assessed relative to a calibration curve with average values for replicate tests used to map protease stability under presoak or manual warewash use conditions. Enzyme retention at each time point was calculated as the % enzyme activity relative to the time=0 sample.
The analysis by lipase and amylase assay was conducted similarly, except with a different substrate and buffers. For lipase activity, the substrate is p-nitrophenyl valerate, and for amylase, the substrate is an ethylidene substrate (EPS). The buffer used in lipase assay is TRIS (Tris(hydroxymethyl)aminomethane) buffer at pH 8.0, and in amylase assay HEPES (4-(2-hydroxyethyl)-1-piperazineethanesulfonic acid) buffer at pH 8.0.

[1] = base formula, phosphonate 0.3 wt-%, use solution at 120° F., time 0 min
[2] = base formula, phosphonate 0.3 wt-%, use solution at 120° F., time 5 min
[3] = base formula, phosphonate 0.3 wt-%, use solution at 120° F., time 10 min
[4] = base formula, phosphonate 0.3 wt-%, use solution at 120° F., time 20 min
[5] = base formula, phosphonate 0.3 wt-%, use solution at 120° F., time 40 min
[6] = base formula, phosphonate 0.3 wt-%, use solution at 120° F., time 60 min
[7] = base formula, phosphonate 0.3 wt-%, use solution at 120° F., time 90 min
[8] = base formula, phosphonate 0.3 wt-%, use solution at 120° F., time 120 min
[9] = base formula, phosphonate 0.3 wt-%, use solution at 120° F., time 150 min
[10] = base formula, phosphonate 0.3 wt-%, use solution at 120° F., time 180 min
[11] = base formula, phosphonate 0.3 wt-%, use solution at 120° F., time 210 min
[12] = base formula, phosphonate 0.3 wt-%, use solution at 120° F., time 240 min
[13] = base formula, phosphonate 0.6 wt-%, use solution at 120º F., time 0 min
[14] = base formula, phosphonate 0.6 wt-%, use solution at 120º F., time 5 min
[15] = base formula, phosphonate 0.6 wt-%, use solution at 120º F., time 10 min
[16] = base formula, phosphonate 0.6 wt-%, use solution at 120º F., time 20 min
[17] = base formula, phosphonate 0.6 wt-%, use solution at 120º F., time 40 min
[18] = base formula, phosphonate 0.6 wt-%, use solution at 120º F., time 60 min
[19] = base formula, phosphonate 0.6 wt-%, use solution at 120º F., time 90 min
[20] = base formula, phosphonate 0.6 wt-%, use solution at 120º F., time 120 min
[21] = base formula, phosphonate 0.6 wt-%, use solution at 120º F., time 150 min
[22] = base formula, phosphonate 0.6 wt-%, use solution at 120º F., time 180 min
[23] = base formula, phosphonate 0.6 wt-%, use solution at 120º F., time 210 min
[24] = base formula, phosphonate 0.6 wt-%, use solution at 120º F., time 240 min
[25] = base formula, phosphonate at 0.1% elemental phosphorus level, use solution at 120º F., time 0 min
[26] = base formula, phosphonate at 0.1% elemental phosphorus level, use solution at 120º F., time 5 min
[27] = base formula, phosphonate at 0.1% elemental phosphorus level, use solution at 120º F., time 10 min
[28] = base formula, phosphonate at 0.1% elemental phosphorus level, use solution at 120º F., time 20 min
[29] = base formula, phosphonate at 0.1% elemental phosphorus level, use solution at 120º F., time 40 min
[30] = base formula, phosphonate at 0.1% elemental phosphorus level, use solution at 120º F., time 60 min
[31] = base formula, phosphonate at 0.1% elemental phosphorus level, use solution at 120º F., time 90 min
[32] = base formula, phosphonate at 0.1% elemental phosphorus level, use solution at 120º F., time 120 min
[33] = base formula, phosphonate at 0.1% elemental phosphorus level, use solution at 120º F., time 150 min
[34] = base formula, phosphonate at 0.1% elemental phosphorus level, use solution at 120º F., time 180 min
[35] = base formula, phosphonate at 0.1% elemental phosphorus level, use solution at 120º F., time 210 min
[36] = base formula, phosphonate at 0.1% elemental phosphorus level, use solution at 120º F., time 240 min

## O=C(O)CCC(CC(=O)O)(C(=O)O)P(=O)(O)O (stereo not drawn) [PBTC, Phosphonebutane tricarboxylic acid]
All Ash formula, phosphonate 0.3 wt-%, use solution at 120° F., time 0 min
  Relative Amylase Enzyme Activity: 98.88%
All Ash formula, phosphonate 0.3 wt-%, use solution at 120° F., time 5 min
  Relative Amylase Enzyme Activity: 100.00%
All Ash formula, phosphonate 0.3 wt-%, use solution at 120° F., time 10 min
  Relative Amylase Enzyme Activity: 94.76%
All Ash formula, phosphonate 0.3 wt-%, use solution at 120° F., time 20 min
  Relative Amylase Enzyme Activity: 90.04%
All Ash formula, phosphonate 0.3 wt-%, use solution at 120° F., time 40 min
  Relative Amylase Enzyme Activity: 63.67%
All Ash formula, phosphonate 0.3 wt-%, use solution at 120° F., time 60 min
  Relative Amylase Enzyme Activity: 58.65%
All Ash formula, phosphonate 0.3 wt-%, use solution at 120° F., time 90 min
  Relative Amylase Enzyme Activity: 54.03%
All Ash formula, phosphonate 0.3 wt-%, use solution at 120° F., time 120 min
  Relative Amylase Enzyme Activity: 45.38%
All Ash formula, phosphonate 0.3 wt-%, use solution at 120° F., time 150 min
  Relative Amylase Enzyme Activity: 44.40%
All Ash formula, phosphonate 0.3 wt-%, use solution at 120° F., time 180 min
  Relative Amylase Enzyme Activity: 41.15%
All Ash formula, phosphonate 0.3 wt-%, use solution at 120° F., time 210 min
  Relative Amylase Enzyme Activity: 41.56%
All Ash formula, phosphonate 0.3 wt-%, use solution at 120° F., time 240 min
  Relative Amylase Enzyme Activity: 40.40%
[1]
  Relative Amylase Enzyme Activity: 100.00%
[2]
  Relative Amylase Enzyme Activity: 96.90%
[3]
  Relative Amylase Enzyme Activity: 94.03%
[4]
  Relative Amylase Enzyme Activity: 86.69%
[5]
  Relative Amylase Enzyme Activity: 83.68%
[6]
  Relative Amylase Enzyme Activity: 86.51%
[7]
  Relative Amylase Enzyme Activity: 84.89%
[8]
  Relative Amylase Enzyme Activity: 85.85%
[9]
  Relative Amylase Enzyme Activity: 76.25%
[10]
  Relative Amylase Enzyme Activity: 81.01%
[11]
  Relative Amylase Enzyme Activity: 81.99%
[12]
  Relative Amylase Enzyme Activity: 81.88%
[13]
  Relative Amylase Enzyme Activity: 100.00%
[14]
  Relative Amylase Enzyme Activity: 107.86%
[15]
  Relative Amylase Enzyme Activity: 111.05%
[16]
  Relative Amylase Enzyme Activity: 106.52%
[17]
  Relative Amylase Enzyme Activity: 73.11%
[18]
  Relative Amylase Enzyme Activity: 79.10%
[19]
  Relative Amylase Enzyme Activity: 71.11%
[20]
  Relative Amylase Enzyme Activity: 64.98%
[21]
  Relative Amylase Enzyme Activity: 74.97%
[22]
  Relative Amylase Enzyme Activity: 85.22%
[23]
  Relative Amylase Enzyme Activity: 94.67%
[24]
  Relative Amylase Enzyme Activity: 97.07%
[25]
  Relative Amylase Enzyme Activity: 90.07%
[26]
  Relative Amylase Enzyme Activity: 100.00%
[27]
  Relative Amylase Enzyme Activity: 98.00%
[28]
  Relative Amylase Enzyme Activity: 89.44%
[29]
  Relative Amylase Enzyme Activity: 90.60%
[30]
  Relative Amylase Enzyme Activity: 86.05%
[31]
  Relative Amylase Enzyme Activity: 90.47%
[32]
  Relative Amylase Enzyme Activity: 89.11%
[33]
  Relative Amylase Enzyme Activity: 88.36%
[34]
  Relative Amylase Enzyme Activity: 82.80%
[35]
  Relative Amylase Enzyme Activity: 84.45%
[36]
  Relative Amylase Enzyme Activity: 91.39%

## Polyamino Polyether Methylene Phosphonic Acid [PAPEMP]
[1]
  Relative Amylase Enzyme Activity: 45.92%
[2]
  Relative Amylase Enzyme Activity: 100.00%
[3]
  Relative Amylase Enzyme Activity: 101.33%
[4]
  Relative Amylase Enzyme Activity: 101.28%
[5]
  Relative Amylase Enzyme Activity: 89.91%
[6]
  Relative Amylase Enzyme Activity: 93.07%
[7]
  Relative Amylase Enzyme Activity: 89.58%
[8]
  Relative Amylase Enzyme Activity: 89.74%
[9]
  Relative Amylase Enzyme Activity: 92.85%
[10]
  Relative Amylase Enzyme Activity: 87.45%
[11]
  Relative Amylase Enzyme Activity: 93.95%
[12]
  Relative Amylase Enzyme Activity: 108.16%
[13]
  Relative Amylase Enzyme Activity: 100.00%
[14]
  Relative Amylase Enzyme Activity: 91.71%
[15]
  Relative Amylase Enzyme Activity: 99.05%
[16]
  Relative Amylase Enzyme Activity: 94.55%
[17]
  Relative Amylase Enzyme Activity: 97.22%
[18]
  Relative Amylase Enzyme Activity: 97.94%
[19]
  Relative Amylase Enzyme Activity: 101.28%
[20]
  Relative Amylase Enzyme Activity: 99.25%
[21]
  Relative Amylase Enzyme Activity: 105.34%
[22]
  Relative Amylase Enzyme Activity: 98.44%
[23]
  Relative Amylase Enzyme Activity: 101.64%
[24]
  Relative Amylase Enzyme Activity: 96.02%
[25]
  Relative Amylase Enzyme Activity: 100.00%
[26]
  Relative Amylase Enzyme Activity: 85.10%
[27]
  Relative Amylase Enzyme Activity: 95.50%
[28]
  Relative Amylase Enzyme Activity: 96.02%
[29]
  Relative Amylase Enzyme Activity: 91.46%
[30]
  Relative Amylase Enzyme Activity: 97.42%
[31]
  Relative Amylase Enzyme Activity: 89.60%
[32]
  Relative Amylase Enzyme Activity: 99.26%
[33]
  Relative Amylase Enzyme Activity: 101.88%
[34]
  Relative Amylase Enzyme Activity: 91.85%
[35]
  Relative Amylase Enzyme Activity: 99.00%
[36]
  Relative Amylase Enzyme Activity: 96.59%
